Laboratory results: patent publication US20210070748A1, “INHIBITORS OF BRUTONS TYROSINE KINASE” (Pharmacyclics LLC, priority 2015, published 2021)
Counter-ions that a name gives are not always drawn.

Key:
Format in all cases: biochemical
JAK3 = target: T1, JAK3 (Homo sapiens, UniProt P52333); test: Inhibition of a panel of kinases, in vitro HotSpot kinase assay: JAK3; details: Table 10, Formula A-I; 1 μM ATP; read-out: JAK3 (IC50)
T1 sequence (P52333 1-1124): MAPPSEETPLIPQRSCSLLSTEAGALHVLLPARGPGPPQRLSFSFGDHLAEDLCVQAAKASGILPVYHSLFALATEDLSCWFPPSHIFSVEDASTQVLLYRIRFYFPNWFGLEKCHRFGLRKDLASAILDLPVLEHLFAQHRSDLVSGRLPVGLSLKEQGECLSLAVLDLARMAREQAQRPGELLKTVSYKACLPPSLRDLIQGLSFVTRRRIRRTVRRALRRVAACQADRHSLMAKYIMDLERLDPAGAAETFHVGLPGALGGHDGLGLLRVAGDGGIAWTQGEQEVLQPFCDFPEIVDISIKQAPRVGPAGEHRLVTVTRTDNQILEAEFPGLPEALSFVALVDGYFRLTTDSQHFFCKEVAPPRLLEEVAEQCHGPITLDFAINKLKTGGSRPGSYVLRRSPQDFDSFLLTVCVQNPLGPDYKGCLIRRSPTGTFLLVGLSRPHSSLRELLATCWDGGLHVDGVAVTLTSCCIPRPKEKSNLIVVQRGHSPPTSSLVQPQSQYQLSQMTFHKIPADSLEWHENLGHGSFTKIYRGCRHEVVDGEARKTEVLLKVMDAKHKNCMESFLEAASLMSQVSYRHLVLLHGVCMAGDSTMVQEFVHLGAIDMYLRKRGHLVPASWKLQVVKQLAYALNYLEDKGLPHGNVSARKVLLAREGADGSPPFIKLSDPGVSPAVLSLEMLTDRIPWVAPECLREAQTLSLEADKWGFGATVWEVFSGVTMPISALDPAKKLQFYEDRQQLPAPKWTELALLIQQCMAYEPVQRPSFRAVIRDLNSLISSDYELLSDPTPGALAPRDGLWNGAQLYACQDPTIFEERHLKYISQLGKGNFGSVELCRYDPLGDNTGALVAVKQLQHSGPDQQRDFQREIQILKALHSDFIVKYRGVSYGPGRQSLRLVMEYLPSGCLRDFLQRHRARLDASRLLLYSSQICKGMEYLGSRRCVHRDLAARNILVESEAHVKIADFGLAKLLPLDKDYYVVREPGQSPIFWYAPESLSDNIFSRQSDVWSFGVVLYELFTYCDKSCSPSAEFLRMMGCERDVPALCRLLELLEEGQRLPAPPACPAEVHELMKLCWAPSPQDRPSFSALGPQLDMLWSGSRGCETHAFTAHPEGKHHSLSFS

LCK = LCK (Homo sapiens, UniProt P06239); test: Inhibition of a panel of kinases, in vitro HotSpot kinase assay: LCK; details: Table 10, Formula A-I; 1 μM ATP; read-out: LCK (IC50)
BTK-WT = target: T2, BTK-WT (Homo sapiens, UniProt Q06187); test: Btk in vitro inhibitory activity (one of Method A TR-FRET, Method B electrophoretic mobility shift, Method C radiometric filter binding); details: Table 10, Formula A-I; read-out: BTK-WT (IC50)
T2 construct: purified from insect cells as a full-length construct containing an N-terminal 6X-His tag; His6 (N); made in house; host or cells: insect cells (baculovirus Sf21 in Method B)
T2 sequence (Q06187 whole entry): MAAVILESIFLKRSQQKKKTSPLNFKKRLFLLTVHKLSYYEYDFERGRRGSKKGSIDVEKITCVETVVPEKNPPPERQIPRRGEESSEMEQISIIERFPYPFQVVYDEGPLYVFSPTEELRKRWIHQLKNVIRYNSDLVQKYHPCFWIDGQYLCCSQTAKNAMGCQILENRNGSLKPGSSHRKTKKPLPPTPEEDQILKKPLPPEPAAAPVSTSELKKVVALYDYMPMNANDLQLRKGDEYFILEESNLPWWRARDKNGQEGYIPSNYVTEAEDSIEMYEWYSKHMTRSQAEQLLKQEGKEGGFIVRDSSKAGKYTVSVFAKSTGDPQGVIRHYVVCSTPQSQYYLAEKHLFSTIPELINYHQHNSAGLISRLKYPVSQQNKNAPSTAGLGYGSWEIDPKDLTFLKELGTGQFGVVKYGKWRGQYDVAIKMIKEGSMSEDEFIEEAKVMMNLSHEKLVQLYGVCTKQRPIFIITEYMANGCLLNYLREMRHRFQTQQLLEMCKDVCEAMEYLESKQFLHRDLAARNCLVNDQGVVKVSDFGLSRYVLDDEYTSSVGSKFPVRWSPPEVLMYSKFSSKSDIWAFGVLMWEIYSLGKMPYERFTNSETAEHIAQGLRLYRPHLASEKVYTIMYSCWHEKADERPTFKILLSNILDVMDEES

LCK, sequence (P06239 whole entry): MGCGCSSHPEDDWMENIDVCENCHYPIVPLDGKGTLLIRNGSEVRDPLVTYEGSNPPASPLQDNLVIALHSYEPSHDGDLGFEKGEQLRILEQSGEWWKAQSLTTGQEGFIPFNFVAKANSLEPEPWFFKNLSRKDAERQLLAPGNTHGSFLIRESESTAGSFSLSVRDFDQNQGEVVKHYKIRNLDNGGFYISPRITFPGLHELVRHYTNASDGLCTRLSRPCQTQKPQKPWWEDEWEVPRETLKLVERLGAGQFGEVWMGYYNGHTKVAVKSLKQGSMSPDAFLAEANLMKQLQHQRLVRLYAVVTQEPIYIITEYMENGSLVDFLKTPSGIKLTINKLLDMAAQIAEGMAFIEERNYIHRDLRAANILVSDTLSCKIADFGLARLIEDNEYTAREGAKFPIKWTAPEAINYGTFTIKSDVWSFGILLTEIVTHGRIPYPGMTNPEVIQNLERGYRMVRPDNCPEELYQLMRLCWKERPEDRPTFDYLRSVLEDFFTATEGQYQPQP

In the case of `Cc1cc(Nc2nc(N3CCC[C@@H](NC(=O)c4ccc(F)cc4)C3)cnc2C(N)=O)sn1` [Example A-20, 5-[(3R)-3-(4-fluorobenzamido)piperidin-1-yl]-3-[(3-methyl-1,2-thiazol-5-yl)amino]pyrazine-2-carboxamide], the IC50 (JAK3) is reported as over 10000 nM, the IC50 (LCK) is reported as 100 to 1000 nM and the IC50 (BTK-WT) is reported as at most 100 nM.
`Cc1cc(Nc2nc(N3CCC[C@@H](NC(=O)c4ccc(N(C)C)cc4)C3)cnc2C(N)=O)sn1` [Example A-21, 5-[(3R)-3-[4-(dimethylamino)benzamido]piperidin-1-yl]-3-[(3-methyl-1,2-thiazol-5-yl)amino]pyrazine-2-carboxamide] was tested, and the IC50 (JAK3) was 100 to 1000 nM, the IC50 (LCK) was over 10000 nM and the IC50 (BTK-WT) was at most 100 nM.
`Cc1cc(Nc2nc(N3CCC[C@@H](NC(=O)c4cccc(F)c4)C3)cnc2C(N)=O)sn1` [Example A-22, 5-[(3R)-3-(3-fluorobenzamido)piperidin-1-yl]-3-[(3-methyl-1,2-thiazol-5-yl)amino]pyrazine-2-carboxamide] was tested, and the IC50 (JAK3) was 100 to 1000 nM, the IC50 (LCK) was 100 to 1000 nM and the IC50 (BTK-WT) was at most 100 nM.
For `Cc1cc(Nc2nc(N3CCC[C@@H](NC(=O)c4ccccc4F)C3)cnc2C(N)=O)sn1` [Example A-23, 5-[(3R)-3-(2-fluorobenzamido)piperidin-1-yl]-3-[(3-methyl-1,2-thiazol-5-yl)amino]pyrazine-2-carboxamide], the IC50 (JAK3) was 100 to 1000 nM, the IC50 (LCK) was 100 to 1000 nM and the IC50 (BTK-WT) was at most 100 nM.
For `Cc1ccc(C(=O)N[C@@H]2CCCN(c3cnc(C(N)=O)c(Nc4cc(C)ns4)n3)C2)c(F)c1` [Example A-24, 5-[(3R)-3-(2-fluoro-4-methylbenzamido)piperidin-1-yl]-3-[(3-methyl-1,2-thiazol-5-yl)amino]pyrazine-2-carboxamide], the IC50 (JAK3) was over 10000 nM, the IC50 (LCK) was over 10000 nM and the IC50 (BTK-WT) was at most 100 nM.
`Cc1cc(Nc2nc(N3CCC[C@@H](NC(=O)c4ccc(N)cc4)C3)cnc2C(N)=O)sn1` [Example A-25, 5-[(3R)-3-(4-aminobenzamido)piperidin-1-yl]-3-[(3-methyl-1,2-thiazol-5-yl)amino]pyrazine-2-carboxamide] gave an IC50 (JAK3) of 100 to 1000 nM, an IC50 (LCK) of 100 to 1000 nM and an IC50 (BTK-WT) of at most 100 nM.
Work on `Cc1cc(Nc2nc(N3CCC[C@@H](NC(=O)c4ccc(N5CCCC5)cc4)C3)cnc2C(N)=O)sn1` [Example A-26, 3-[(3-methyl-1,2-thiazol-5-yl)amino]-5-[(3R)-3-[4-(pyrrolidin-1-yl)benzamido]piperidin-1-yl]pyrazine-2-carboxamide] yielded an IC50 (JAK3) of 1000 to 10000 nM, an IC50 (LCK) of over 10000 nM and an IC50 (BTK-WT) of at most 100 nM.
In the case of `Cc1cc(Nc2nc(N3CCC[C@@H](NC(=O)c4cccc(N(C)C)c4)C3)cnc2C(N)=O)sn1` [Example A-27, (5-[(3R)-3-[3-(dimethylamino)benzamido]piperidin-1-yl]-3-[(3-methyl-1,2-thiazol-5-yl)amino]pyrazine-2-carboxamide hydrochloride], the IC50 (JAK3) is reported as 1000 to 10000 nM, the IC50 (LCK) is reported as 100 to 1000 nM and the IC50 (BTK-WT) is reported as at most 100 nM.
`Cc1cc(Nc2nc(N3CCC[C@@H](NC(=O)C4CCCCC4)C3)cnc2C(N)=O)sn1` [Example A-28, 5-[(3R)-3-cyclohexaneamidopiperidin-1-yl]-3-[(3-methyl-1,2-thiazol-5-yl)amino]pyrazine-2-carboxamide] showed an IC50 (JAK3) of 1000 to 10000 nM, an IC50 (LCK) of 100 to 1000 nM and an IC50 (BTK-WT) of at most 100 nM.
With `Cc1cc(Nc2nc(N3CCC[C@@H](NC(=O)c4ccncc4)C3)cnc2C(N)=O)sn1` [Example A-29, 3-[(3-methyl-1,2-thiazol-5-yl)amino]-5-[(3R)-3-(pyridine-4-amido)piperidin-1-yl]pyrazine-2-carboxamide] the IC50 (JAK3) was 100 to 1000 nM, the IC50 (LCK) was 1000 to 10000 nM and the IC50 (BTK-WT) was at most 100 nM.
Work on `Cc1cc(Nc2nc(N3CCC[C@@H](NC(=O)c4ccc(C(C)C)cc4)C3)cnc2C(N)=O)sn1` [Example A-30, 3-[(3-methyl-1,2-thiazol-5-yl)amino]-5-[(3R)-3-[4-(propan-2-yl)benzamido]piperidin-1-yl]pyrazine-2-carboxamide] yielded an IC50 (JAK3) of 1000 to 10000 nM, an IC50 (LCK) of over 10000 nM and an IC50 (BTK-WT) of at most 100 nM.
`CCn1ccc2cc(C(=O)N[C@@H]3CCCN(c4cnc(C(N)=O)c(Nc5cc(C)ns5)n4)C3)ccc21` [Example A-31, N-[(3R)-1-{5-carbamoyl-6-[(3-methyl-1,2-thiazol-5-yl)amino]pyrazin-2-yl}piperidin-3-yl]-1-ethyl-1H-indole-5-carboxamide] was tested, and the IC50 (JAK3) was 100 to 1000 nM, the IC50 (LCK) was 100 to 1000 nM and the IC50 (BTK-WT) was at most 100 nM.
In the case of `Cc1cc(Nc2nc(N3CCC[C@@H](NC(=O)c4ccc(C5CC5)cc4)C3)cnc2C(N)=O)sn1` [Example A-32, 5-[(3R)-3-(4-cyclopropylbenzamido)piperidin-1-yl]-3-[(3-methyl-1,2-thiazol-5-yl)amino]pyrazine-2-carboxamide], the IC50 (JAK3) is reported as 1000 to 10000 nM, the IC50 (LCK) is reported as over 10000 nM and the IC50 (BTK-WT) is reported as at most 100 nM.
`Cc1cccc(C(=O)N[C@@H]2CCCN(c3cnc(C(N)=O)c(Nc4cc(C)ns4)n3)C2)c1` [Example A-33, 3-[(3-methyl-1,2-thiazol-5-yl)amino]-5-[(3R)-3-(3-methylbenzamido)piperidin-1-yl]pyrazine-2-carboxamide] showed an IC50 (JAK3) of 1000 to 10000 nM, an IC50 (LCK) of 100 to 1000 nM and an IC50 (BTK-WT) of at most 100 nM.
`Cc1cc(Nc2nc(N3CCC[C@@H](NC(=O)c4ccc(N(C)C)nc4)C3)cnc2C(N)=O)sn1` [Example A-34, 5-[(3R)-3-[6-(dimethylamino)pyridine-3-amido]piperidin-1-yl]-3-[(3-methyl-1,2-thiazol-5-yl)amino]pyrazine-2-carboxamide] was tested, and the IC50 (JAK3) was 1000 to 10000 nM, the IC50 (LCK) was 1000 to 10000 nM and the IC50 (BTK-WT) was at most 100 nM.
`Cc1cc(Nc2nc(N3CCC[C@@H](NC(=O)c4ccc(F)cc4F)C3)cnc2C(N)=O)sn1` [Example A-36, 5-[(3R)-3-(2,4-difluorobenzamido)piperidin-1-yl]-3-[(3-methyl-1,2-thiazol-5-yl)amino]pyrazine-2-carboxamide] was tested, and the IC50 (JAK3) was over 10000 nM, the IC50 (LCK) was over 10000 nM and the IC50 (BTK-WT) was at most 100 nM.
`CN(C)c1ccc(C(=O)N[C@@H]2CCCN(c3cnc(C(N)=O)c(Nc4ccc(S(C)(=O)=O)cc4)n3)C2)cc1` [Example A-44, 5-[(3R)-3-[4-(dimethylamino)benzamido]piperidin-1-yl]-3-[(4-methanesulfonylphenyl)amino]pyrazine-2-carboxamide] gave an IC50 (JAK3) of 1000 to 10000 nM, an IC50 (LCK) of over 10000 nM and an IC50 (BTK-WT) of at most 100 nM.
`NC(=O)c1ncc(N2CCC[C@@H](NC(=O)c3ccccc3)C2)nc1Nc1ccc2ncccc2c1` [Example A-45, 5-[(3R)-3-benzamidopiperidin-1-yl]-3-[(quinolin-6-yl)amino]pyrazine-2-carboxamide] gave an IC50 (JAK3) of 1000 to 10000 nM, an IC50 (LCK) of over 10000 nM and an IC50 (BTK-WT) of at most 100 nM.
For `CN(C)c1ccc(C(=O)N[C@@H]2CCCN(c3cnc(C(N)=O)c(Nc4ccc5ncccc5c4)n3)C2)cc1` [Example A-46, 5-[(3R)-3-[4-(dimethylamino)benzamido]piperidin-1-yl]-3-[(quinolin-6-yl)amino]pyrazine-2-carboxamide hydrochloride], the IC50 (JAK3) was 1000 to 10000 nM, the IC50 (LCK) was over 10000 nM and the IC50 (BTK-WT) was at most 100 nM.
`CN(C)C(=O)N[C@@H]1CCCN(c2cnc(C(N)=O)c(Nc3ccc4ncccc4c3)n2)C1` [Example A-47, 5-[(3R)-3-[(dimethylcarbamoyl)amino]piperidin-1-yl]-3-[(quinolin-6-yl)amino]pyrazine-2-carboxamide] was tested, and the IC50 (JAK3) was 1000 to 10000 nM, the IC50 (LCK) was over 10000 nM and the IC50 (BTK-WT) was at most 100 nM.
Compound `CC1(c2ccc(Nc3nc(N4CCC[C@@H](NC(=O)c5ccccc5)C4)cnc3C(N)=O)cc2)CCN(C2CC2)CC1` [Example A-48, 5-[(3R)-3-benzamidopiperidin-1-yl]-3-{[4-(1-cyclopropyl-4-methylpiperidin-4-yl)phenyl]amino}pyrazine-2-carboxamide] has an IC50 (JAK3) of under 100 nM, an IC50 (LCK) of under 100 nM and an IC50 (BTK-WT) of at most 100 nM.
For `CN(C)c1ccc(C(=O)N[C@@H]2CCCN(c3cnc(C(N)=O)c(Nc4ccc(C5(C)CCN(C6CC6)CC5)cc4)n3)C2)cc1` [Example A-49, 3-{[4-(1-cyclopropyl-4-methylpiperidin-4-yl)phenyl]amino}-5-[(3R)-3-[4-(dimethylamino)benzamido]piperidin-1-yl]pyrazine-2-carboxamide], the IC50 (JAK3) was 100 to 1000 nM, the IC50 (LCK) was under 100 nM and the IC50 (BTK-WT) was at most 100 nM.
